Read-outs that look alike come from different tables or passages of the source.

For one assay, the target named is BRM (Homo sapiens, UniProt P51531). Put plainly: ATPase catalytic activity assay of BRM (ADP-Glo). The class given is biochemical. To be noted: for IC50: read-out: BRM IC50 (μM)*. The essentials:
(§1)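 ATPase activity of BRG-1 or BRM was read by ADP-Glo. Residual ATP was depleted (40 min, room temperature), then ADP was converted to ATP (60 min, room temperature) and measured as luciferase luminescence.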

The target in the next assay is BRG-1 (Homo sapiens, UniProt P51532). Put plainly: ATPase catalytic activity assay of BRG-1 (ADP-Glo). To be noted: ATPase catalytic activity, ADP-Glo; for IC50: read-out: BRG1 IC50 (μM)*; for Emax: read-out: BRG1 Max % Inhibition. The class given is biochemical. The essentials:
as §1

Chain of BRM (P51531 whole entry): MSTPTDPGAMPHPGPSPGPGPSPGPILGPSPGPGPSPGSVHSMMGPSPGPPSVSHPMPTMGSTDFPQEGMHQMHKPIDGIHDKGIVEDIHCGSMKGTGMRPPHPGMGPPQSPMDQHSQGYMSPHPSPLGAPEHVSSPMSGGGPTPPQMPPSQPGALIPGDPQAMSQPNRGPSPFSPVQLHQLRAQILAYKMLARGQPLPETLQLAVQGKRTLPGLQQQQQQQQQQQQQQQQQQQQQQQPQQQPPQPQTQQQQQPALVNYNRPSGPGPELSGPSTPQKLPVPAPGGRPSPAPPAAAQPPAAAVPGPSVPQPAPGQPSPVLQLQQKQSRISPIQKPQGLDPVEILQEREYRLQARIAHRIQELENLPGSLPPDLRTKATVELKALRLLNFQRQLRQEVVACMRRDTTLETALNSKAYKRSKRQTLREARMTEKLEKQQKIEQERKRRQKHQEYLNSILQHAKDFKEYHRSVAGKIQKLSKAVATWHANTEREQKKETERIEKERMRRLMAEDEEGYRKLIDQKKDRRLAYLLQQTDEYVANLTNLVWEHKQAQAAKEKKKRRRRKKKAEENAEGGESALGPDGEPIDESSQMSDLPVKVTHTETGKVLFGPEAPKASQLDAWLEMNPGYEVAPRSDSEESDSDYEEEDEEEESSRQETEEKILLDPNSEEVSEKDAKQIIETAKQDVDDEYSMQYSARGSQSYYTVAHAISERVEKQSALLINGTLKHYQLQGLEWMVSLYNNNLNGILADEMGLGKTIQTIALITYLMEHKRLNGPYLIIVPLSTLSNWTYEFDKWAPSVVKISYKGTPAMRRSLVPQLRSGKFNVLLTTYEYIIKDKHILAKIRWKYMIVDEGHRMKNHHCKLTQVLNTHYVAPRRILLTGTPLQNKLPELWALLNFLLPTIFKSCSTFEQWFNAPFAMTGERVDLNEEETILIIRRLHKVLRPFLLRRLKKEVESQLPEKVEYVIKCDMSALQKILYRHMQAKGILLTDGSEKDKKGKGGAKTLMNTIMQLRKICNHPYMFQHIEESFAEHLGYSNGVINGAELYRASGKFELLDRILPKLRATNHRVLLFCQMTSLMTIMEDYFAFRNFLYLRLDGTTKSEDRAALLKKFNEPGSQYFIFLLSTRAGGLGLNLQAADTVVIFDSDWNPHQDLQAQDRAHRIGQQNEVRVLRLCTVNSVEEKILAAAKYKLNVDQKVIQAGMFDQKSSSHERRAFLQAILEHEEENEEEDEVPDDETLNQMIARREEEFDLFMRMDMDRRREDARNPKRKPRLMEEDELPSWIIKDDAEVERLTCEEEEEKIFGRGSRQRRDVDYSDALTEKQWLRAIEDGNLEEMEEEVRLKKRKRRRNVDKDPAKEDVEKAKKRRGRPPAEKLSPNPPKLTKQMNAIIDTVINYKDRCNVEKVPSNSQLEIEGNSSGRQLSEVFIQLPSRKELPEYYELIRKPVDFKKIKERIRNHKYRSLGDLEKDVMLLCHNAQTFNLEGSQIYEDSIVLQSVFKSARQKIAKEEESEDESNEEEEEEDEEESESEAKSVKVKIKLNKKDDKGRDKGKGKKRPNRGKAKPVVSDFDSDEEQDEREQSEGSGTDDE
Chain of BRG-1 (P51532 whole entry): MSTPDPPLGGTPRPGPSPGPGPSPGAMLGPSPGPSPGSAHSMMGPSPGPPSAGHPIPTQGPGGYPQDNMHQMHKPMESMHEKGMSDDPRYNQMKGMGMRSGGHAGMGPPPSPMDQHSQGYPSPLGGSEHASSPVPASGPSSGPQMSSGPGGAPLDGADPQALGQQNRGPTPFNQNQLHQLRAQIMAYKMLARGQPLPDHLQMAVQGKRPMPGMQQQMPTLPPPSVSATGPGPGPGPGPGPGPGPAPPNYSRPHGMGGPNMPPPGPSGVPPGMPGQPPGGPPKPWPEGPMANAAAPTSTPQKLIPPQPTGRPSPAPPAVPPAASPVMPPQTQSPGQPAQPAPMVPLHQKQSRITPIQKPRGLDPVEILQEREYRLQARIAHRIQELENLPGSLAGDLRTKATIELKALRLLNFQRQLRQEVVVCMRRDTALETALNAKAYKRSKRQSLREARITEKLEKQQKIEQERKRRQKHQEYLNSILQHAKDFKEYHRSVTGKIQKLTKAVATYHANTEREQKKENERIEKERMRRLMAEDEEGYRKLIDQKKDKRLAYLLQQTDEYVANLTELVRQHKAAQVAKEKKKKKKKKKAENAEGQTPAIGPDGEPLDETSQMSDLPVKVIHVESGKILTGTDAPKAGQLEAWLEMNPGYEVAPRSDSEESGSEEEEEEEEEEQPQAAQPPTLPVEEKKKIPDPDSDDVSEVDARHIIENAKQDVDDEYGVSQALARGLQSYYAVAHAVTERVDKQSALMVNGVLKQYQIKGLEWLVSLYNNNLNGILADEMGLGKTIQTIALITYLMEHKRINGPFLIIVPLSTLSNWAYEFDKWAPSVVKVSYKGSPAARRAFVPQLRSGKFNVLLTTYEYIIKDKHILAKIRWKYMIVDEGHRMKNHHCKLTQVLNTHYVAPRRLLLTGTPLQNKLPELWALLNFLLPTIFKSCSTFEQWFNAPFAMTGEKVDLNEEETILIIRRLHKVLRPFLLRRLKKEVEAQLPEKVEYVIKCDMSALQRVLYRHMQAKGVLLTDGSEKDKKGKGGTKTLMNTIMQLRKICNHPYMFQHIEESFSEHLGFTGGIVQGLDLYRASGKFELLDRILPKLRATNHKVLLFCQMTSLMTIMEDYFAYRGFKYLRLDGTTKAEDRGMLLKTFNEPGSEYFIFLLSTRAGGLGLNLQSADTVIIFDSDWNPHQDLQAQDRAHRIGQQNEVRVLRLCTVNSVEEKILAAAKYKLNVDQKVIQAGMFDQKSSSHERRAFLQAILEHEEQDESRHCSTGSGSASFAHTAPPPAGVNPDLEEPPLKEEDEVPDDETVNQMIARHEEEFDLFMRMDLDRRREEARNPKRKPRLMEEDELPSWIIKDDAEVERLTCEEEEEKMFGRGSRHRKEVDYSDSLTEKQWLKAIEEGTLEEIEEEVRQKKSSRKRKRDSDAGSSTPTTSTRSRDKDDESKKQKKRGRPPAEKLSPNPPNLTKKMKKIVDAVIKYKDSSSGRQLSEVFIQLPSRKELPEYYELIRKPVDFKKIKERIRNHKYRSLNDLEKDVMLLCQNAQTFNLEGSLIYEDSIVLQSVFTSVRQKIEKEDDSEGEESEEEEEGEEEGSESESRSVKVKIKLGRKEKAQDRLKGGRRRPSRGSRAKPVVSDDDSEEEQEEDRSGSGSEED

On to `CC(=O)N(C)c1cc(-c2cccc(-c3csc(NC(=O)CNC(=O)c4cccc(S(=O)(=O)C(C)C)c4)n3)c2)ccn1` [Compound 25, 3-(isopropylsulfonyl)-N-(2-((4-(3-(2-(N-methylacetamido)pyridin-4-yl)phenyl)thiazol-2-yl)amino)-2-oxoethyl)benzamide], for which, on BRM, the “BRM Max % Inhibition” value is reported as more than 90% and the IC50 is less than 0.1 µM. In addition, at BRG-1, the IC50 fell in the range of 0.1 to 1 µM and the Emax was more than 80%.
Consider `COc1cccc(-c2csc(NC(=O)CNC(=O)c3ccc4c(c3)C(C)(C#N)CNC4)n2)c1` (centres unmarked) [Compound 311, 4-cyano-N-(2-((4-(3-methoxyphenyl)thiazol-2-yl)amino)-2-oxoethyl)-4-methyl-1,2,3,4-tetrahydroisoquinoline-6-carboxamide], for which, at BRM, the “BRM Max % Inhibition” value is more than 95% and the IC50 fell in the range of 0.1 to 1 µM. On BRG-1, the IC50 lay in the range of 1 to 5 µM and the Emax is more than 95%.
The like results for `C[C@@H]1CN(c2cccc(-c3csc(NC(=O)CNC(=O)c4cccc(C5(F)COCC5O)c4)n3)n2)C[C@H](C)O1` (stereo partly drawn) [Compound 304, N-(2-((4-(6-((cis)-2,6-dimethylmorpholino)pyridin-2-yl)thiazol-2-yl)amino)-2-oxoethyl)-3-(3-fluoro-4-hydroxytetrahydrofuran-3-yl)benzamide] were, in that order, more than 95%, 0.1 to 1 µM, 1 to 5 µM and more than 95%.
For `C[C@@H]1CN(c2cccc(-c3csc(NC(=O)CNC(=O)c4ccc5c(c4)C(C)(C)COC5)n3)n2)C[C@H](C)O1` [Compound 282, N-(2-((4-(6-((cis)-2,6-dimethylmorpholino)pyridin-2-yl)thiazol-2-yl)amino)-2-oxoethyl)-4,4-dimethylisochromane-6-carboxamide], on BRM, the “BRM Max % Inhibition” value is listed as more than 95% and the IC50 was less than 0.1 µM. For the same molecule, on BRG-1, the 50% inhibitory concentration (IC50) was 0.1 to 1 µM and the Emax is more than 95%.
Consider `C[C@@]1(C#N)COCc2ccc(C(=O)NCC(=O)Nc3nc(-c4cc(F)c5c(c4)CCO5)cs3)cc21` [Compound 352, (R)-4-cyano-N-(2-((4-(7-fluoro-2,3-dihydrobenzofuran-5-yl)thiazol-2-yl)amino)-2-oxoethyl)-4-methylisochromane-6-carboxamide], for which, at BRM, the “BRM Max % Inhibition” value is given as more than 95% and the IC50 was less than 0.1 µM. Moreover, at BRG-1, the IC50 was less than 0.1 µM and the Emax is more than 95%.
Turning to `C[C@]1(CO)CCc2c(C(=O)NCC(=O)Nc3nc(-c4cccc(-c5ccncc5)c4)cs3)cccc21` [Compound 226, (S)-1-(hydroxymethyl)-1-methyl-N-(2-oxo-2-((4-(3-(pyridin-4-yl)phenyl)thiazol-2-yl)amino)ethyl)-2,3-dihydro-1H-indene-4-carboxamide], at BRM, the “BRM Max % Inhibition” value is recorded as more than 95% and the concentration for half-maximal inhibition (IC50) was in the range of 0.1 to 1 µM. On BRG-1, the IC50 lay within 1 to 5 µM and the Emax is more than 70%.
The matching figures for `Cc1cnc(O)c(-c2cccc(-c3csc(NC(=O)CNC(=O)c4ccc5c(c4)[C@](C)(CO)CC5)n3)n2)c1` [Compound 263, (R)-N-(2-((4-(2′-hydroxy-5′-methyl-[2,3′-bipyridin]-6-yl)thiazol-2-yl)amino)-2-oxoethyl)-3-(hydroxymethyl)-3-methyl-2,3-dihydro-1H-indene-5-carboxamide]: more than 80%, 0.1 to 1 µM, 1 to 5 µM and more than 40%.
As for `CC1(CO)CCc2ccc(C(=O)NCC(=O)Nc3nc(-c4cccc(-c5ccncc5)c4)cs3)cc21` (single isomer, unassigned) [Compound 105], at BRM, the “BRM Max % Inhibition” value is given as more than 95% and the 50% inhibitory concentration (IC50) was less than 0.1 µM. On BRG-1, the IC50 is less than 0.1 µM and the Emax was more than 90%.
Take `CCC(C)(O)c1cccc(C(=O)NCC(=O)Nc2nc(-c3cccc(-c4ccncc4)c3)cs2)c1` (single isomer, unassigned) [Compound 81]: at BRM, the “BRM Max % Inhibition” value is listed as more than 90% and the IC50 fell in the range of 0.1 to 1 µM. In addition, on BRG-1, the “BRG1 Max % Inhibition” value is recorded as more than 70% and the IC50 was 0.1 to 1 µM.
`CC(C)(CN)c1cccc(C(=O)NCC(=O)Nc2nc(-c3cccc(-c4cccc(C#N)c4)c3)cs2)c1` [Compound 55, 3-(1-amino-2-methylpropan-2-yl)-N-(2-((4-(3′-cyano-[1,1′-biphenyl]-3-yl)thiazol-2-yl)amino)-2-oxoethyl)benzamide]: on BRM, the “BRM Max % Inhibition” value was more than 90% and the IC50 was in the range of 0.1 to 1 µM. Also, at BRG-1, the IC50 was more than 5 µM and the Emax was more than 60%.
Regarding `C[C@@H]1CN(c2cccc(-c3csc(NC(=O)CNC(=O)c4cc(C(C)(C)CO)ccc4F)n3)n2)C[C@H](C)O1` [Compound 145, N-[2-[[4-[6-[(cis)-2,6-dimethylmorpholin-4-yl]-2-pyridyl]thiazol-2-yl]amino]-2-oxo-ethyl]-2-fluoro-5-(2-hydroxy-1,1-dimethyl-ethyl)benzamide], on BRM, the “BRM Max % Inhibition” value was more than 90% and the half-inhibitory concentration (IC50) lay in the range of 0.1 to 1 µM. Further, at BRG-1, the IC50 was in the range of 1 to 5 µM and the Emax is more than 60%.
As for `CC1(C#N)CCOc2ccc(C(=O)NCC(=O)Nc3nc(-c4cccc(C5COC5)c4)cs3)cc21` (stereo in doubt) [Compound 423, (S)-4-cyano-4-methyl-N-(2-((4-(3-(oxetan-3-yl)phenyl)thiazol-2-yl)amino)-2-oxoethyl)chromane-6-carboxamide], at BRM (30 nM BRM, 400 μM ATP), the “BRM Max % Inhibition” value was more than 95% and the half-inhibitory concentration (IC50) was less than 0.1 µM. For the same molecule, at BRG-1 (30 nM BRG-1, 400 μM ATP), the concentration for half-maximal inhibition (IC50) lay in the range of 0.1 to 1 µM and the Emax was more than 95%.
For the molecule `CC1CC(c2cccc(-c3csc(NC(=O)CNC(=O)c4ccc5c(c4)[C@](C)(C#N)COC5)n3)c2)O1` (stereo partly drawn) [Compound 340, (R)-4-cyano-4-methyl-N-(2-((4-(3-(4-methyloxetan-2-yl)phenyl)thiazol-2-yl)amino)-2-oxoethyl)isochromane-6-carboxamide], at BRM, the “BRM Max % Inhibition” value is more than 95% and the half-inhibitory concentration (IC50) is less than 0.1 µM. Also, on BRG-1, the concentration for half-maximal inhibition (IC50) is 0.1 to 1 µM and the Emax is more than 95%.
For the molecule `C[C@@H]1CN(c2cccc(-c3csc(NC(=O)CNC(=O)c4ccc5c(c4)C4(COC5)COC4)n3)n2)C[C@H](C)O1` [Compound 300, N-(2-((4-(6-((cis)-2,6-dimethylmorpholino)pyridin-2-yl)thiazol-2-yl)amino)-2-oxoethyl)spiro[isochromane-4,3′-oxetane]-6-carboxamide], on BRM, the “BRM Max % Inhibition” value was more than 95% and the half-maximal inhibitory concentration (IC50) was less than 0.1 µM. For the same molecule, at BRG-1, the IC50 is 0.1 to 1 µM and the Emax is more than 95%.
`C[C@@H]1CN(c2cccc(-c3csc(NC(=O)CNC(=O)c4ccc5c(c4)C4(CC4)COC5)n3)n2)C[C@H](C)O1` [Compound 406, N-(2-((4-(6-((cis)-2,6-dimethylmorpholino)pyridin-2-yl)thiazol-2-yl)amino)-2-oxoethyl)spiro[cyclopropane-1,4′-isochromane]-6′-carboxamide]: at BRM, the “BRM Max % Inhibition” value is listed as more than 95% and the half-maximal inhibitory concentration (IC50) is less than 0.1 µM. In addition, on BRG-1, the IC50 fell in the range of 0.1 to 1 µM and the Emax is more than 95%.
For `CC(=O)NCc1cccc(-c2cccc(-c3csc(NC(=O)CNC(=O)c4cccc(S(=O)(=O)C(C)C)c4)n3)c2)c1` [Compound 111, N-(2-((4-(3′-(acetamidomethyl)-[1,1′-biphenyl]-3-yl)thiazol-2-yl)amino)-2-oxoethyl)-3-(isopropylsulfonyl) benzamide], on BRM, the “BRM Max % Inhibition” value is more than 90% and the half-inhibitory concentration (IC50) fell in the range of 0.1 to 1 µM. At BRG-1, the IC50 is more than 5 µM and the Emax is more than 40%.
As for `C[C@@H]1CN(c2cccc(-c3csc(NC(=O)CNC(=O)c4ccc5c(c4)C4(CCO4)COC5)n3)n2)C[C@H](C)O1` (stereo partly drawn) [Compound 376, N-(2-((4-(6-((cis)-2,6-dimethylmorpholino)pyridin-2-yl)thiazol-2-yl)amino)-2-oxoethyl)spiro[isochromane-4,2′-oxetane]-6-carboxamide], on BRM, the “BRM Max % Inhibition” value is more than 95% and the IC50 is less than 0.1 µM. Also, on BRG-1, the half-inhibitory concentration (IC50) was 0.1 to 1 µM and the Emax is more than 95%.
Regarding `C[C@@]1(C#N)COCc2ccc(C(=O)NCC(=O)Nc3nc(-c4cccc(N5CCC56COC6)c4)cs3)cc21` [Compound 328, (R)-N-(2-((4-(3-(6-oxa-1-azaspiro[3.3]heptan-1-yl)phenyl)thiazol-2-yl)amino)-2-oxoethyl)-4-cyano-4-methylisochromane-6-carboxamide], on BRM, the “BRM Max % Inhibition” value is recorded as more than 95% and the IC50 was less than 0.1 µM. In addition, at BRG-1, the IC50 fell in the range of 0.1 to 1 µM and the Emax was more than 95%.
For the molecule `CC1(C#N)CCOc2ccc(C(=O)NCC(=O)Nc3nc(-c4cccc(C(F)F)n4)cs3)cc21` (stereo in doubt) [Compound 430, (S)-4-cyano-N-(2-((4-(6-(difluoromethyl)pyridin-2-yl)thiazol-2-yl)amino)-2-oxoethyl)-4-methylchromane-6-carboxamide], on BRM (30 nM BRM, 400 μM ATP), the “BRM Max % Inhibition” value is recorded as more than 95% and the half-maximal inhibitory concentration (IC50) lay within 0.1 to 1 µM. On BRG-1 (30 nM BRG-1, 400 μM ATP), the IC50 lay in the range of 1 to 5 µM and the Emax is more than 95%.
Regarding `Cc1cc(-c2cccc(-c3csc(NC(=O)CNC(=O)c4ccc5c(c4)[C@@](C)(CO)CC5)n3)c2)nc(C)n1` [Compound 227, (3S)-N-[2-[[4-[3-(2,6-dimethylpyrimidin-4-yl)phenyl]thiazol-2-yl]amino]-2-oxo-ethyl]-3-(hydroxymethyl)-3-methylindane-5-carboxamide], at BRM, the “BRM Max % Inhibition” value is on record as more than 95% and the IC50 was less than 0.1 µM. At BRG-1, the IC50 was less than 0.1 µM and the Emax was more than 95%.
